In patent US9572799B2, “Pyrazolopyridine derivatives for use in the treatment of bladder cancer” (SANOFI, priority 2013, dated 2017):

What was measured:
[1] = system: bladder cancer tumour cells of TCC97-7 type carrying the Ser249Cys mutation of FGF receptor 3; assay: Inhibition of serum-induced proliferation of TCC97-7 bladder cancer cells (cell-covered surface area, Incucyte); format: cell-based; settings: 72 h, TCC97-7 cell line in the presence of serum, after 3 days
Procedure: Evaluation of the Capacity of the FGF-R Antagonists to Inhibit Serum-Induced Proliferation of Bladder Cancer Tumour Cells of TCC97-7 Type Carrying the Ser249Cys Mutation of FGF Receptor 3
To do this, 2000 cells are seeded in the morning in 50 μl of complete medium (Ham-F/12, 1% FCS, 2 mM glutamine, non-essential amino acids, sodium pyruvate, 1% insulin/transferrin/selenium, hydrocortisone). In the evening, 50 μl of the various compounds are added at 2 or 20 μM after dilution in complete culture medium in order to obtain final concentrations of 1 or 10 μM. After 3 days, cell proliferation is evaluated by measuring the cell-covered surface area of a well of a 96 well plate. This surface area is measured using an Incucyte apparatus (Essen BioScience). The percentage inhibition of the cell proliferation is calculated by considering the surface area occupied by the TCC97-7 cells cultured in the absence of FGF-R antagonists to be 0% inhibition. 100% inhibition would correspond to a well no longer containing cells.
Thus, compounds 1 to 24 are capable of inhibiting TCC97-7 cell proliferation by more than 20% at the dose of 1 or 10 μM. (Table No. 2).

[2] = system: TCC97-7 bladder cancer cells carrying the Ser249Cys mutation of FGF-R3; assay: Reduction of intracellular ATP content of TCC97-7 cells in serum-supplemented medium (Cell Titer-Glo); format: cell-based; settings: 72 h, TCC97-7 cells cultured in the presence of serum, after 3 days, read-out: Inhibition of the amount of intracellular ATP (%)
Procedure: Evaluation of the Capacity of FGF-R Antagonists to Reduce the ATP Content of TCC97-7 Bladder Cancer Cells Carrying the Ser249Cys Mutation of FGF-R3, Cultured in a Serum-Supplemented Medium
To do this, 3000 cells are seeded in 50 μl of complete medium (Ham-F/12, 1% FCS, 2 mM glutamine, non-essential amino acids, sodium pyruvate, 1% insulin/transferrin/selenium, hydrocortisone). 16 hours later, 50 μl of the various compounds are added at 2 and 20 μM after dilution in complete culture medium in order to obtain final concentrations of 1 and 10 μM. After 3 days, the ATP content of the cells is measured using the Cell Titer-Glo® Luminescent Cell Viability Assay kit (Promega, France) according to the supplier's recommendations. The percentage inhibition of the amount of intracellular ATP is calculated by considering the ATP content of the cells cultured in the absence of antagonist to be 0% inhibition. 100% inhibition would correspond to a well in which the ATP content is zero.
Thus, compounds 1 to 24 are capable of inhibiting the amount of intracellular ATP in TCC97-7 cells by more than 20% at the dose of 1 or 10 μM (Table No. 3).

O=c1[nH]c2ccc(-c3cc(C(F)(F)F)c4c(-c5ccccc5)n[nH]c4n3)cc2[nH]1 [compound 15, 5-(3-Phenyl-4-trifluoromethyl-1H-pyrazolo[3,4-b]pyridin-6-yl)-1,3-dihydrobenzoimidazol-2-one]
inhibition at 1 µM [1]: -3% | inhibition at 10 µM [1]: 29% | inhibition at 1 µM [2]: -11% | inhibition at 10 µM [2]: 19% | melting point: 380 °C

CN(C)c1cccc(-c2cc(C(F)(F)F)c3c(-c4ccccc4)nn(C)c3n2)c1 [compound 3, Dimethyl-[3-(1-methyl-3-phenyl-4-trifluoromethyl-1H-pyrazolo[3,4-b]pyridin-6-yl)phenyl]amine]
inhibition at 1 µM [1]: -32.3% | inhibition at 10 µM [1]: 40% | inhibition at 1 µM [2]: 21.3% | inhibition at 10 µM [2]: 47.7% | melting point: 95 °C
